In ChEMBL document CHEMBL1201862, “PubChem BioAssay data set” (2004):
Blank lines part the entries; values can stand above or below the molecule they belong to. The source made the active and inactive calls.

Legend:
Cytochrome P450 2C19 = Cytochrome P450 2C19 (Homo sapiens, UniProt P33261); assay: Cytochrome panel assay with activity outcomes. Panel member name: p450-cyp2c19 Compounds with AC50 equal or less than 10 uM are considered active; type: functional
[1] = Trypanosoma cruzi growth suppression in host cells – NIH3T3 host cells, beta-gal luminescence, confirmation (AID 2044); type: functional, cell-based;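 also: intracellular parasites grown in NIH/3T3 mouse fibroblasts as host cells; luminescent beta-galactosidase reporter signal from transgenic T. cruzi replicating inside host cells; inhibitors lower the luminescence signal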
[2] = NIH3T3 cell viability loss – ATP luminescence, mouse fibroblasts, counter-screen, dose response (AID 2010); type: functional, cell-based;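 also: cells exposed to compound for about 90 hours before reading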
Cytochrome P450 3A4 = Cytochrome P450 3A4 (Homo sapiens, UniProt P08684);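 also: CYP3A4 tested as one member of a cytochrome P450 panel screen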
Cytochrome P450 1A2 = molecular target: T1, Cytochrome P450 1A2 (Homo sapiens, UniProt P05177);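 also: PubChem cytochrome P450 panel assay, CYP1A2 panel member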
T1 sequence (P05177 whole entry): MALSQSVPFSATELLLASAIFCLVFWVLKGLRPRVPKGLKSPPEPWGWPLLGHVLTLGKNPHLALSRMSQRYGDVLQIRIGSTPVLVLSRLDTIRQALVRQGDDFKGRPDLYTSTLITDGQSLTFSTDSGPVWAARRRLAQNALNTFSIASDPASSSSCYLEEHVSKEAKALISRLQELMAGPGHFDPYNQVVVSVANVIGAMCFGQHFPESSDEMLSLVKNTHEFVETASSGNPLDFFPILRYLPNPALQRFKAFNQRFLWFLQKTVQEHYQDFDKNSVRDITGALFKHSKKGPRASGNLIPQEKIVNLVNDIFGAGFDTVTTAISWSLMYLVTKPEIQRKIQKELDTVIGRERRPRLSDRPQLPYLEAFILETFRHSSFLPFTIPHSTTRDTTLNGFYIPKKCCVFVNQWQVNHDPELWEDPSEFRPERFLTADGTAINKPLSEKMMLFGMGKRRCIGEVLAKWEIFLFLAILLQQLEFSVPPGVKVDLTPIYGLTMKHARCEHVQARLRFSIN

[3] = Luminescence Cell-Based Dose Retest to Confirm Inhibitors of Cancer Stem Cells. [Related pubchem assays (depositor defined):AID2717, AID2721]; type: functional; conditions: Homo sapiens
[4] = test system: Streptococcus sp. 'group A'; assay: Streptococcus pyogenes SK(-)GAS viability under kanamycin – luminescence, BacTiterGlo, confirmation, counter-screen for streptokinase expression inhibitor project, dose response (AID 1900); type: functional, organism-based
Streptococcus = assay: GAS UMAA2166 growth inhibition – luminescence, BacTiterGlo, counter-screen for streptokinase expression inhibitor project, dose response (AID 1915); type: functional, organism-based;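 also: potency for reduction of bacterial viability or growth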

Chain of Cytochrome P450 3A4 (P08684 whole entry): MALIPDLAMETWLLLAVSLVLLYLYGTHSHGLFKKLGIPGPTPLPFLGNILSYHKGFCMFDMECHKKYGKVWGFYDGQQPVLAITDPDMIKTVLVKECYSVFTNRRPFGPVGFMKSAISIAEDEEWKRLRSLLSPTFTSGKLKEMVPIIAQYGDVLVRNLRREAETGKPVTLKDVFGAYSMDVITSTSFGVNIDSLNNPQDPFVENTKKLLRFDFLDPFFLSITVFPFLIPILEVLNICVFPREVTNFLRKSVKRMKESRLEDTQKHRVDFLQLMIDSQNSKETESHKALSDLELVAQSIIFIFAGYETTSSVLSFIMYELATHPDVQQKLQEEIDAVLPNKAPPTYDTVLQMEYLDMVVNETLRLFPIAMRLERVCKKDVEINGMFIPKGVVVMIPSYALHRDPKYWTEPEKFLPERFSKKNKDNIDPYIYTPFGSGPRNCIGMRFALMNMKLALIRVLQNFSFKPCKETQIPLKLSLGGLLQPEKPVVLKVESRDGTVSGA
Chain of Cytochrome P450 2C19 (P33261 whole entry): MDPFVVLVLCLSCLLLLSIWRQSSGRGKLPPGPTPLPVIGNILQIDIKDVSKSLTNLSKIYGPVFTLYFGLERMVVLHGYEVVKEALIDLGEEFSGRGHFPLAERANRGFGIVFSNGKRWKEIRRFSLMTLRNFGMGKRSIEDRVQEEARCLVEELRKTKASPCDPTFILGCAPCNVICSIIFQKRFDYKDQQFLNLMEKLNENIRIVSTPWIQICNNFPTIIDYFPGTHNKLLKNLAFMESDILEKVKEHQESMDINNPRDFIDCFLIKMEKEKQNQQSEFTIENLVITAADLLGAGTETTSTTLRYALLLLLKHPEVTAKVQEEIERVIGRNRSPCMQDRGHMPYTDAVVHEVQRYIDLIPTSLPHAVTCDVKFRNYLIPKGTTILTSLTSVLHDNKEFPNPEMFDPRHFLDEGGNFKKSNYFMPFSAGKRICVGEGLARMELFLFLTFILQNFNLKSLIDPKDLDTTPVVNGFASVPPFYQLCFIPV

AC50 (Cytochrome P450 2C19; read-out: AC50): 20 µM (inconclusive)
SMILES: CCn1c(SCC(=O)Nc2sc3c(c2C#N)CCC(C(C)(C)C)C3)nnc1-c1ccco1 (stereo unspecified)

AC50 (Cytochrome P450 2C19; read-out: AC50): 39.8 µM (inconclusive)
SMILES: Cc1cccc(CNc2ncnc3ccc(-c4cccnc4)cc23)c1

SMILES: COc1cccc(CC2(CO)CCCN(Cc3ccc(-c4ccco4)cc3)C2)c1 (stereo unspecified)
EC50 [1]: 0.621 µM (active)
EC50 [2]: > 60 µM (not active)

AC50 (Cytochrome P450 3A4): 11.2 µM (inconclusive)
SMILES: CC1CCCC(NC(=O)C2CCN(S(=O)(=O)N3CCOCC3)CC2)C1C (stereo unspecified)

SMILES: O=C(Nc1cc(Sc2nc3ccccc3s2)cc([N+](=O)[O-])c1)c1ccccc1
EC50 [1]: 1.42 µM (active)
EC50 [2]: > 60 µM (not active)

SMILES: Cc1nc(NC(=O)c2ccccc2)sc1-c1csc(NCCc2ccccc2)n1
EC50 [1]: 2.25 µM (active)
EC50 [2]: > 60 µM (not active)

AC50 (Cytochrome P450 1A2): 39.8 µM (inconclusive)
SMILES: N=C(C[C@@H](O)COc1ccccc1-c1ccccc1)N1CCCCC1

AC50 (Cytochrome P450 2C19; read-out: AC50): 2 µM (inconclusive)
AC50 (Cytochrome P450 1A2): 25.1 µM (inconclusive)
SMILES: N#Cc1cccc(NC(=O)N2CC3(CCN(C(=O)c4ccco4)CC3)C2)c1

AC50 (Cytochrome P450 2C19; read-out: AC50): 25.1 µM (inconclusive)
SMILES: CN(Cc1ccco1)c1ccnc(-c2cccc(NS(C)(=O)=O)c2)n1

SMILES: CCN(CC)S(=O)(=O)c1ccc2c(c1)c(=O)c(C(=O)NCCN(C)CCc1ccccc1)cn2C
EC50 [1]: 0.991 µM (active)
EC50 [2]: > 60 µM (not active)

AC50 (Cytochrome P450 1A2): 31.6 µM (inconclusive)
AC50 (Cytochrome P450 3A4): 31.6 µM (inconclusive)
SMILES: C[C@@H]1c2ccccc2CN1CC1=NCCN1

SMILES: CN1CCN(C(=O)COc2ccc(S(=O)(=O)Nc3ccc(F)cc3)cc2)CC1
EC50 [1]: 0.142 µM (active)
EC50 [2]: > 60 µM (not active)

AC50 (Cytochrome P450 2C19; read-out: AC50): 6.31 µM (inconclusive)
SMILES: O[C@@H](c1cc(-c2ccc(Cl)cc2)nc2ccccc12)[C@@H]1CCCCN1

AC50 (Cytochrome P450 3A4): 25.1 µM (inconclusive)
SMILES: Cc1nnc(-c2cnn(-c3ccccc3)c2N)n1Cc1ccc(F)cc1

SMILES: CN1CCC(N(C)C(=O)c2ccccc2Nc2ccc(SC(F)F)cc2)CC1
EC50 [1]: 0.384 µM (active)
EC50 [2]: > 60 µM (not active)

AC50 (Cytochrome P450 2C19; read-out: AC50): 11.2 µM (inconclusive)
AC50 (Cytochrome P450 3A4): 25.1 µM (inconclusive)
SMILES: COc1ccc(Cl)cc1C(=O)Nn1cnc2ccccc2c1=O

SMILES: CN1CCN(CC(O)COCCOc2ccc(Br)cc2)CC1 (stereo unspecified)
EC50 [1]: 0.542 µM (active)
EC50 [2]: > 60 µM (not active)

SMILES: O=C(c1ccc2c(c1)OCO2)C1CCCN(C2CCN(CCc3ccccc3)CC2)C1 (stereo unspecified)
EC50 [1]: 1.72 µM (active)
EC50 [2]: > 60 µM (not active)

AC50 (Cytochrome P450 2C19; read-out: AC50): 39.8 µM (inconclusive)
AC50 (Cytochrome P450 1A2): 31.6 µM (inconclusive)
AC50 (Cytochrome P450 3A4): 12.6 µM (inconclusive)
SMILES: Cn1cccc1C(=O)N1CCC[C@@]2(CCN(c3ccccn3)C2)C1

SMILES: Cc1ccc(-n2cc(CN(C)Cc3ncc[nH]3)c(-c3cccc(C)c3)n2)cc1
EC50 [1]: 1.16 µM (active)
EC50 [2]: > 60 µM (not active)

AC50 (Cytochrome P450 3A4): 31.6 µM (inconclusive)
SMILES: CC(=O)Nc1ccc(S(=O)(=O)NC(CC(=O)NCCCN2CCOCC2)C(C)C)cc1 (stereo unspecified)

SMILES: CC(C)(C)C1CCC(OCC(O)CN2CCN(Cc3ccccc3)CC2)CC1 (stereo unspecified)
EC50 [1]: 1.15 µM (active)
EC50 [2]: > 60 µM (not active)

AC50 (Cytochrome P450 3A4): 15.8 µM (inconclusive)
SMILES: O=c1c(-c2cccc(Cl)c2)nc2cncnc2n1Cc1ccc(F)cc1

AC50 (Cytochrome P450 2C19; read-out: AC50): 7.94 µM (inconclusive)
SMILES: Cc1nc2cnc(Oc3cccc(Cl)c3)nc2n(CCc2ccccc2)c1=O

AC50 (Cytochrome P450 3A4): 2.82 µM (inconclusive)
SMILES: CCCOc1ccc(/C=C/C(=O)Nc2ccc([N+](=O)[O-])cc2C)cc1OC

SMILES: NC(=O)CC(NC(=O)c1ccc(Br)cc1)c1ccc(NCc2ccc(F)cc2)c([N+](=O)[O-])c1 (stereo unspecified)
AC50 [3]: 3.96 µM (active)

AC50 (Cytochrome P450 2C19): inconclusive
SMILES: C[C@@H]1/C=C\CC(=O)OC[C@H](C)C(=O)N[C@@H](C)C(=O)OC1

AC50 (Cytochrome P450 2C19; read-out: AC50): 20 µM (inconclusive)
SMILES: CC(=O)NCCNc1ncncc1-c1ccc(N(C)C)cc1

SMILES: COc1ccc(N=C(S)NC(NC(=O)c2cccc3ccccc23)C(Cl)(Cl)Cl)c([N+](=O)[O-])c1 (stereo unspecified)
EC50 [1]: 2.25 µM (active)
EC50 [2]: > 30 µM (not active)

SMILES: Cc1nn(-c2ccc(F)cc2)c2nc(N)c(C#N)c(-c3ccc(O)c(O)c3)c12
EC50 [1]: 2.04 µM (active)
EC50 [2]: 15.6 µM (active)

SMILES: Cn1c(=O)c2c(nc(C(=N)SCC(=O)O)n2C)n(C)c1=O
AC50 (Cytochrome P450 2C19): inconclusive

SMILES: COc1ccc(CCn2c(SCCN3CCCCC3)nc3ccccc3c2=O)cc1OC
EC50 [1]: 0.936 µM (active)
EC50 [2]: > 60 µM (not active)

AC50 (Cytochrome P450 1A2): 5.01 µM (inconclusive)
SMILES: O=S(=O)(NCc1cn2ccsc2n1)c1ccc(Oc2ccccc2)cc1

SMILES: N#C/C(=C(/O)c1ccc2c(c1)OCO2)c1nc2cc(C(F)(F)F)ccc2s1
EC50 [4]: 2.89 µM (active)
EC50 (Streptococcus): 4.33 µM (active)

AC50 (Cytochrome P450 2C19; read-out: AC50): 28.2 µM (inconclusive)
AC50 (Cytochrome P450 1A2): 6.31 µM (inconclusive)
SMILES: COCC(=O)Oc1c(S(=O)(=O)c2ccc(C)cc2)c(C)nn1-c1ccccc1

SMILES: Cc1nc2c(-c3ccccc3)cnn2c(O)c1Cc1ccccc1
EC50 [1]: 2.22 µM (active)
EC50 [2]: 14.6 µM (active)

AC50 (Cytochrome P450 2C19; read-out: AC50): 3.16 µM (inconclusive)
SMILES: COc1ccc(Oc2nc3ccccc3nc2C(F)(F)F)cc1

AC50 (Cytochrome P450 1A2): 20 µM (inconclusive)
SMILES: Clc1ccccc1-c1nc(NC2CCNCC2)c2ccccc2n1

AC50 (Cytochrome P450 2C19; read-out: AC50): 15.8 µM (inconclusive)
AC50 (Cytochrome P450 1A2): 15.8 µM (inconclusive)
AC50 (Cytochrome P450 3A4): 3.98 µM (inconclusive)
SMILES: Cn1cccc1C(=O)N1CCC2(CCCN(Cc3ccncc3)C2)CC1

AC50 (Cytochrome P450 2C19): inconclusive
SMILES: O[C@@H]1[C@@H](OCc2ccccc2)OC[C@H](O)[C@@H]1O

SMILES: Cc1cc(C)cc(Oc2ncnc3c2ncn3Cc2c(Cl)cccc2Cl)c1
EC50 [1]: 1.95 µM (active)
EC50 [2]: > 60 µM (not active)

AC50 (Cytochrome P450 2C19; read-out: AC50): 14.1 µM (inconclusive)
SMILES: c1csc(CNCCCN2CCOCC2)c1

SMILES: CN1CCN(Cc2nc3cccc4c3c([n+]2[O-])-c2ccccc2-4)CC1
AC50 (Cytochrome P450 3A4): 3.98 µM (inconclusive)

SMILES: CC(C)[C@@H]1CN[C@H](C(=O)O)[C@@H]1CC(=O)O
AC50 (Cytochrome P450 1A2): 39.8 µM (inconclusive)

SMILES: O=C(NC1CCCN(CCc2ccccc2)C1)C1CCCC1 (stereo unspecified)
EC50 [1]: 1.3 µM (active)
EC50 [2]: > 60 µM (not active)

AC50 (Cytochrome P450 3A4): 15.8 µM (inconclusive)
SMILES: COCC(=O)N1CCC2(CCN(Cc3ccncc3)CC2)CC1

SMILES: O[C@@H]1[C@@H]2c3cc4c(cc3CN3CCC(=C[C@@H]1O)[C@H]23)OCO4
AC50 (Cytochrome P450 1A2): 15.8 µM (inconclusive)

SMILES: O=C(O)C(Cc1ccccc1)Cc1ccccc1
AC50 (Cytochrome P450 1A2): 0.00501 µM (inconclusive)

SMILES: O=C(CCn1cnc(-c2ccccc2)c1-c1ccccc1)N/N=C/c1ccccc1O
EC50 [4]: 0.47 µM (active)
EC50 (Streptococcus): 2.13 µM (active)

SMILES: C=CCN1C[C@H](C)N([C@H](c2ccc(C(=O)N(CC)CC)cc2)c2cccc(O)c2)C[C@H]1C
AC50 (Cytochrome P450 1A2): 39.8 µM (inconclusive)

AC50 (Cytochrome P450 3A4): 12.6 µM (inconclusive)
SMILES: COc1ccccc1/C=C/C=N/N1CCN(Cc2cccc3ccccc23)CC1

SMILES: CC(=O)Nc1ccc(/C(C)=N/Nc2nc(Nc3ccccc3)nc(N3CCOCC3)n2)cc1
EC50 [1]: 0.345 µM (active)
EC50 [2]: 50.7 µM (active)

SMILES: O=C(N/N=C/c1cc([N+](=O)[O-])ccc1O)c1c[nH]c2ccccc12
AC50 [3]: 6.85 µM (active)

SMILES: CC(C)CC(=O)O/N=C1\C(=O)N(Cc2ccc(Cl)cc2)c2ccc([N+](=O)[O-])cc21
EC50 [1]: 4.6 µM (active)

SMILES: COc1ccc(/C=N\N=C(N)N)cc1
EC50 [1]: 0.854 µM (active)
EC50 [2]: > 60 µM (not active)

AC50 (Cytochrome P450 2C19): inconclusive
SMILES: CN(C)C(=N)NCCC[C@H](N)C(=O)O

SMILES: CCOC(=O)Nc1ccc2c(c1)N(C(=O)CCN1CCOCC1)c1ccccc1S2 [MORICIZINE]
EC50 [1]: 5.85 µM (active)
EC50 [2]: > 60 µM (not active)
